This note sets out measurements from patent publication US5189043A, “Isoquinolone derivatives, their production and use” (Takeda Chemical Industries, Ltd., priority 1989, dated 1993).

As usually defined, the inhibition is how much of the control response was suppressed. Read a high inhibition as a response far below the control.

The target in this test is T1, HMG-CoA reductase of rat's liver microsome (Rattus norvegicus, UniProt P51639).
T1 construct: from tissue; host or cells: liver microsomes of male Sprague-Dawley rats fed 5% cholestyramine diet for 5 days
T1 sequence (P51639 1-887): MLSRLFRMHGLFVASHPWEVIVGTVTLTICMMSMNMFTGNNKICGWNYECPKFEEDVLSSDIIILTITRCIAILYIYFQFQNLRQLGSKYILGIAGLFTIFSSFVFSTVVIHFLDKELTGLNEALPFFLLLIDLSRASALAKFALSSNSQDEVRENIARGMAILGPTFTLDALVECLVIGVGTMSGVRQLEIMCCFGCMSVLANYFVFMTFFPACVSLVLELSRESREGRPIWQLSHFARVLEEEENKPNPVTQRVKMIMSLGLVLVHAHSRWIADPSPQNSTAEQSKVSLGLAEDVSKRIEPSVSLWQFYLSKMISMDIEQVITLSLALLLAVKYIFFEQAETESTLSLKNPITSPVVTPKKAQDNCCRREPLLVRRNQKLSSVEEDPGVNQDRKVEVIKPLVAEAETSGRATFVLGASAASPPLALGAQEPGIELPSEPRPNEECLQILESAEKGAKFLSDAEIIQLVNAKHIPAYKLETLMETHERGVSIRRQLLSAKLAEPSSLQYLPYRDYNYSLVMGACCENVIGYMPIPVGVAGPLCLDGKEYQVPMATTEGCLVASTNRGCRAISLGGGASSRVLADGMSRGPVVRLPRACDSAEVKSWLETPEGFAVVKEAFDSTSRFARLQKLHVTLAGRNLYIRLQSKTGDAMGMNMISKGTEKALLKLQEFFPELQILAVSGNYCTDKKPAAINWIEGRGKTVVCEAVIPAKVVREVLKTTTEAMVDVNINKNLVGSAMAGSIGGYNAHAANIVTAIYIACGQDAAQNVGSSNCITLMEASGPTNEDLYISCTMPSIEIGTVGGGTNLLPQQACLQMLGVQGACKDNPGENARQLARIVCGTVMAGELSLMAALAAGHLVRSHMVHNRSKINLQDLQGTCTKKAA
Put plainly: Inhibitory action for HMG-CoA reductase of rat's liver microsome. The following applies: at 10-^6 M, rat liver microsome (cholestyramine-fed), d,l-[3-^14 C]-HMG-CoA 0.5 mM, NADPH 20 mM, 37° C. 30 minutes; for inhibition at 1 µM: 0.5 h. Format: biochemical, male Sprague-Dawley rats. The method, then: Inhibitory action for HMG-CoA reductase of rat's liver microsome
5% cholestyramine diet was fed to male Sprague-Dawley rats (300-400 g of body weight) for 5 days. Activity for HMG-CoA reductase of liver microsome was measured by a variant of the method of Shapiro et al [Biochem. Biophys. Acta 370, 36(1974)]. In this method, the enzyme activity is determined by measuring the formation of ^14 C-mevalonate from a substrate [3^14 C]-HMG-CoA in the presence of NADPH. ^14 C-Mevalonate is converted into its lactone which can be isolated by silica gel thin layer chromatography developing with benzene: acetone (50:50).
In order to measure inhibitory action for HMG-CoA reductase, test compound was dissolved in dimethyl sulfoxide and the solution was diluted with a buffer solution (100 mM phosphate buffer, 20 mM EDTA.2Na, […] dithioethritol).
The resulting mixture was incubated with microsome (120 μg protein) at 30° C. for 15 minutes, and further incubated at 37° C. for 30 minutes after addition of d,l-[3-^14 C]-HMG-CoA (0.5 mM, 5000 dpm/nmol) and NADPH (20 mM).
(In general: Liver microsomes are a subcellular fraction often used to study metabolism.)

Compound `COc1cc(F)ccc1-c1c(/C=C/[C@@H](O)C[C@@H](O)CC(=O)O)c2ccccc2c(=O)n1C(C)C` (relative stereo) [Example 1-2, Sodium [3R*,5S*(E)]-7-[1,2-dihydro-3-(4-fluoro-2-methoxyphenyl-2-(1-methylethyl)-1-oxo-4-isoquinolinyl]-3,5-dihydroxy-6-heptenoate] showed an inhibition at 1 µM of 92%.

Regarding `CC(C)n1c(-c2ccc(F)cc2)c(/C=C/[C@@H](O)C[C@@H](O)CC(=O)O)c2ccccc2c1=O` (relative stereo) [Example 2-2, Sodium [3R*,5S*(E)]-7-[1,2-dihydro-3-(4-fluorophenyl)-2-(1-methylethyl)-1-oxo-4-isoquinolinyl]-3,5-dihydroxy-6-heptenoate], the inhibition at 1 µM is 91.2%. `Cc1cc(F)ccc1-c1c(/C=C/[C@@H](O)C[C@@H](O)CC(=O)O)c2ccccc2c(=O)n1C(C)C` (relative stereo) [Example 5-2]: the inhibition at 1 µM stood at 90.4%. In the case of `CCCn1c(-c2ccc(F)cc2C)c(/C=C/[C@@H](O)C[C@@H](O)CC(=O)O)c2ccccc2c1=O` (relative stereo) [Example 10-2], the inhibition at 1 µM worked out at 90.4%.

Consider `CCCn1c(-c2ccc(F)cc2F)c(/C=C/[C@@H](O)C[C@@H](O)CC(=O)O)c2ccccc2c1=O` (relative stereo) [Example 11-2], for which the inhibition at 1 µM is 90.9%. The same measure, in the same setting: the same measure for `COC(=O)C[C@H](O)C[C@H](O)/C=C/c1c(-c2ccc(F)cc2)n(CCc2ccccc2)c(=O)c2ccccc12` (relative stereo) [Example 13-1]: 89.6%; for `O=C(O)C[C@H](O)C[C@H](O)/C=C/c1c(-c2ccc(F)cc2)n(CCc2ccccc2)c(=O)c2ccccc12` (relative stereo) [Example 13-2]: 95.1%; for `CCOC(=O)C[C@H](O)C[C@H](O)/C=C/c1c(-c2ccc(F)cc2)n(C)c(=O)c2ccccc12` (relative stereo) [Example 14-1]: 91.1%. `Cn1c(-c2ccc(F)cc2)c(/C=C/[C@@H](O)C[C@@H](O)CC(=O)O)c2ccccc2c1=O` (relative stereo) [Example 14-2] displayed an inhibition at 1 µM of 94%. The same measure, in the same setting: the same measure for `CCn1c(-c2ccc(F)cc2)c(/C=C/[C@@H](O)C[C@@H](O)CC(=O)OC)c2ccccc2c1=O` (relative stereo) [Example 15-1]: 94.2%. The same measure, in the same setting: the same measure for `CCn1c(-c2ccc(F)cc2)c(/C=C/[C@@H](O)C[C@@H](O)CC(=O)O)c2ccccc2c1=O` (relative stereo) [Example 15-2]: 96.1%; for `CCCn1c(-c2ccc(F)cc2)c(/C=C/[C@@H](O)C[C@@H](O)CC(=O)OCC)c2ccccc2c1=O` (relative stereo) [Example 16-1]: 94.2%; for `CCCn1c(-c2ccc(F)cc2)c(/C=C/[C@@H](O)C[C@@H](O)CC(=O)O)c2ccccc2c1=O` (relative stereo) [Example 16-2]: 96.2%. With `CCCCn1c(-c2ccc(F)cc2)c(/C=C/[C@@H](O)C[C@@H](O)CC(=O)OC)c2ccccc2c1=O` (relative stereo) [Example 17-1], the inhibition at 1 µM was 93.4%. Turning to `CCCCn1c(-c2ccc(F)cc2)c(/C=C/[C@@H](O)C[C@@H](O)CC(=O)O)c2ccccc2c1=O` (relative stereo) [Example 17-2], the inhibition at 1 µM was found to be 95.8%. In turn, `CCCCCn1c(-c2ccc(F)cc2)c(/C=C/[C@@H](O)C[C@@H](O)CC(=O)OC)c2ccccc2c1=O` (relative stereo) [Example 18-1] gave an inhibition at 1 µM of 90.7%.

Regarding `CCCCCn1c(-c2ccc(F)cc2)c(/C=C/[C@@H](O)C[C@@H](O)CC(=O)O)c2ccccc2c1=O` (relative stereo) [Example 18-2], the inhibition at 1 µM turned out to be 96.5%. `CCCCCCCn1c(-c2ccc(F)cc2)c(/C=C/[C@@H](O)C[C@@H](O)CC(=O)O)c2ccccc2c1=O` (relative stereo) [Example 19-2] returned an inhibition at 1 µM of 88%.

The compound `COC(=O)C[C@H](O)C[C@H](O)/C=C/c1c(-c2ccc(F)cc2)n(CC(C)C)c(=O)c2ccccc12` (relative stereo) [Example 21-1] registered an inhibition at 1 µM of 91.3%.

Take `CC(C)Cn1c(-c2ccc(F)cc2)c(/C=C/[C@@H](O)C[C@@H](O)CC(=O)O)c2ccccc2c1=O` (relative stereo) [Example 21-2]: the inhibition at 1 µM is 95%. In turn, `O=C(O)C[C@H](O)C[C@H](O)/C=C/c1c(-c2ccc(F)cc2)n(Cc2ccccc2)c(=O)c2ccccc12` (relative stereo) [Example 24-2] displayed an inhibition at 1 µM of 89.6%. `O=C(O)C[C@H](O)C[C@H](O)/C=C/c1c(-c2ccc(F)cc2)n(CCCc2ccccc2)c(=O)c2ccccc12` (relative stereo) [Example 32-2] registered an inhibition at 1 µM of 89.6%. `O=C(O)C[C@H](O)C[C@H](O)/C=C/c1c(-c2ccc(F)cc2)n(CCc2ccc(Cl)cc2)c(=O)c2ccccc12` (relative stereo) [Example 33-2] displayed an inhibition at 1 µM of 95.7%. `O=C(O)C[C@H](O)C[C@H](O)/C=C/c1c(-c2ccc(F)cc2)n(CCc2ccc(F)cc2)c(=O)c2ccccc12` (relative stereo) [Example 35-2] returned an inhibition at 1 µM of 96.9%.

Compound `Cc1ccc(CCn2c(-c3ccc(F)cc3)c(/C=C/[C@@H](O)C[C@@H](O)CC(=O)O)c3ccccc3c2=O)cc1` (relative stereo) [Example 36-2] had an inhibition at 1 µM of 93.2%. Same read-out and setting: in the case of `COc1ccc(CCn2c(-c3ccc(F)cc3)c(/C=C/[C@@H](O)C[C@@H](O)CC(=O)O)c3ccccc3c2=O)cc1` (relative stereo) [Example 37-2] it was 96.2%; in that of `COc1ccccc1CCn1c(-c2ccc(F)cc2)c(/C=C/[C@@H](O)C[C@@H](O)CC(=O)O)c2ccccc2c1=O` (relative stereo) [Example 38-2], 95.9%; in that of `O=C(O)C[C@H](O)C[C@H](O)/C=C/c1c(-c2ccc(F)cc2)n(CCc2cccc(F)c2)c(=O)c2ccccc12` (relative stereo) [Example 39-2], 91.7%. Compound `O=C(O)C[C@H](O)C[C@H](O)/C=C/c1c(-c2ccc(F)cc2)n(CCc2ccccc2F)c(=O)c2ccccc12` (relative stereo) [Example 40-2] yielded an inhibition at 1 µM of 92.6%. For the compound `COCCn1c(-c2ccc(F)cc2)c(/C=C/[C@@H](O)C[C@@H](O)CC(=O)O)c2ccccc2c1=O` (relative stereo) [Example 41-2], the inhibition at 1 µM worked out at 88.2%. `CSCCn1c(-c2ccc(F)cc2)c(/C=C/[C@@H](O)C[C@@H](O)CC(=O)O)c2ccccc2c1=O` (relative stereo) [Example 42-2] yielded an inhibition at 1 µM of 94.1%.

Regarding `C=CCn1c(-c2ccc(F)cc2)c(/C=C/[C@@H](O)C[C@@H](O)CC(=O)O)c2ccccc2c1=O` (relative stereo) [Example 43-2], the inhibition at 1 µM is 90.6%. `CC(C)n1c(-c2ccc(F)cc2)c(/C=C/[C@@H](O)C[C@@H](O)CC(=O)O)c2c(c1=O)CCCC2` (relative stereo) [Example 47-2] yielded an inhibition at 1 µM of 93.3%.

As to `CCCn1c(-c2ccc(F)cc2)c(/C=C/[C@@H](O)C[C@@H](O)CC(=O)O)c2c(c1=O)CCCC2` (relative stereo) [Example 48-2], the inhibition at 1 µM amounted to 96.6%. Consider `CCCn1c(-c2ccc(F)cc2)c(/C=C/[C@@H](O)C[C@@H](O)CC(=O)O)c2ccccc2c1=O` [Example 49-2, Sodium [3R, 5S(E)]-7-[1,2-dihydro-3-(4-fluorophenyl)-2-propyl-1-oxo-4-isoquinolinyl]-3,5-dihydroxy-6-heptenoate], for which 1 µM produced 97.1% inhibition.

In turn, `CCCn1c(-c2ccc(F)cc2)c(/C=C/[C@@H]2C[C@@H](O)CC(=O)O2)c2ccccc2c1=O` [Example 49-3] registered an inhibition at 1 µM of 92.5%.

As for `CC[C@H](C)C(=O)O[C@H]1C[C@@H](C)C=C2C=C[C@H](C)[C@H](CC[C@@H]3C[C@@H](O)CC(=O)O3)[C@H]21` [Mevinolin, reference compound], the “Inhibition (%)” value is on record as 75.5%.
